# Earlier results, collected in publication PMC4626739 (Toxins, 2015).
substance,measurement,value
Kalata B1,resistance to chaotropic agents and proteases,extremely resistant
same,thermal stability,highly thermostable
